The text below walks through data of patent publication US6335333B1, “N-arylsulfonylamino acid omega-amides” (Aventis Pharma Deutschland GmbH, priority 1998, dated 2002).

The term solubility denotes the dissolved amount per volume that the medium holds. By IC50 is commonly meant the concentration that inhibits the measured activity by half.

Converted amounts (≈) assume the structure as drawn. Structures can show the parent of a compound that is named as a salt. Where two headings read alike, the source gives them in different places.

The nature of series [1]: Determination of the solubility in water (HPLC against external standard). In kind it is physicochemical. How it is done:
Determination of the solubility in water of the free acid of 2-(4′-chloro-biphenyl-4-sulfonylamino)-5-(5-fluoro-2,3-dihydroindol-1-yl)-5-oxopentanoic acid according to Example 8 and its tromethamine salt according to Example 15
Approximately 50 mg of test substance according to 1.1a) were initially introduced into a 100 ml Erlenmeyer flask. After addition of 10 ml of water, the mixture was stirred at 25° C. After 2 hours (h) and after 3 h, aliquots were taken and centrifuged. 1 ml each of the supernatant was diluted to 10 ml with mobile phase. The concentration of the active component was determined by means of HPLC against an external standard. Repetition of the experiment.
Approximately 800 mg of the tromethamine salt according to 1.1b) were initially introduced into a 100 ml Erlenmeyer flask. After addition of 10 ml of water, the mixture was stirred at 25° C. After 2 h and after 3 h, aliquots were taken and centrifuged. 1 ml each of the supernatant was diluted to 100 ml with mobile phase. The concentration of the active component was determined by means of HPLC against an external standard. Repetition of the experiment.

Series [2] has as its target T1, human stromelysin (MMP-3) (Homo sapiens, UniProt P08254).
T1 construct: enzymatic activity of the catalytic domain of human stromelysin; made in house
The series is described as follows: Inhibition of enzymatic activity of catalytic domain of stromelysin (fluorogenic substrate). The conditions noted are these: pH 6.5, 15 min preincubation. In kind it is biochemical. Here is the method: (§1) Preparation and determination of the enzymatic activity of the catalytic domain of human stromelysin and of neutrophil collagenase.
(§2) The two enzymes—stromelysin (MMP-3) and neutrophil collagenase (MMP-8)—were prepared according to Ye et al. (Biochemistry; 31 (1992) pages 11231-11235) or Weithmann et al. (Inflamm Res 46(1997) 246-252). For measurement of the inhibitory action on the enzymatic activity, 70 μl of buffer solution and 10 μl of enzyme solution were incubated for 15 minutes with 10 μl of a 10% strength (v/v) aqueous dimethyl sulfoxide solution which optionally contained the enzyme inhibitor. After addition of 10 μl of a 10% strength (v/v) aqueous dimethyl sulfoxide solution which contained 1 mmol/l of the substrate, the enzyme reaction was monitored by fluorescence spectroscopy (328 nm (ex)/393 nm (em)). The enzyme activity was shown as the extinction increase/minute. The IC50 values listed in Table 2 were determined as those inhibitor concentrations which in each case led to a 50% inhibition of the enzyme. The buffer solution contained 0.05% of Brij (Sigma, Deisenhofen, Germany) and 0.1 mol/l of piperazine-N,N′-bis[2-ethanesulfonic acid]/NaOH, 0.1 mol/l of NaCl, 0.01 mol/l of CaCl2 and 0.1 mol/l of piperazine-N,N′-bis[2-ethanesulfonic acid] (pH=6.5). The enzyme solution contained 5 μg/ml of one of the enzyme domains prepared according to Ye et al. The substrate solution contained 1 mmol/l of the fluorogenic substrate (7-methoxycoumarin-4-yl)acetyl-Pro-Leu-Gly-Leu-3-(2′,4′-dinitrophenyl)-L-2,3-diaminopropionyl-Ala-Arg-NH2 (Bachem, Heidelberg, Germany).

Series [3] deals with T2, neutrophil collagenase (MMP-8) (Homo sapiens, UniProt P22894).
T2 construct: catalytic domain of human stromelysin and of neutrophil collagenase; made in house
T2 sequence (P22894 100-262 limits assumed): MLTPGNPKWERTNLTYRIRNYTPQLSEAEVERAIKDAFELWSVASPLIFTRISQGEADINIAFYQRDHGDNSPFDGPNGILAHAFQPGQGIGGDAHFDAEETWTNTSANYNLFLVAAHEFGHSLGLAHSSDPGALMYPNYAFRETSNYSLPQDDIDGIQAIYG
Kind of series: Inhibition of enzymatic activity of catalytic domain of neutrophil collagenase (fluorogenic substrate). Format: biochemical. The following applies: pH 6.5, 15 min preincubation. How it is done:
as §1, §2

T1 sequence (P08254 100-272 limits assumed): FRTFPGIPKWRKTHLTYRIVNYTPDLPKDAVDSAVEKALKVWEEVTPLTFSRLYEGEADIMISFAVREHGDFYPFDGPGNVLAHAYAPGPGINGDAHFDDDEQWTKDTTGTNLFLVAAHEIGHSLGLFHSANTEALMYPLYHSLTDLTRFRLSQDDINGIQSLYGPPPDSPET

In the case of `O=C(O)[C@H](CCC(=O)N1CCc2ccccc21)NS(=O)(=O)c1ccc(-c2ccc(Cl)cc2)cc1` (stereo in doubt) [Example 8, 2-(4′-Chlorobiphenyl-4-sulfonylamino)-5-(2,3-dihydroindol-1-yl)-5-oxopentanoic acid], the solubility at 2 h in series [1] (thermodynamic from solid, water, 25° C., stirred 2 h, mean value from two determinations, read-out: Solubility in water at 25° C. after 2 h) turned out to be 200 µg/mL (≈ 401 µM). For the same compound, the solubility at 3 h in series [1] (thermodynamic from solid, water, 25° C., stirred 3 h, mean value from two determinations, read-out: Solubility in water at 25° C. After 3 h) was found to be 100 µg/mL (≈ 200 µM). Moreover, the “Solubility in water at 25° C. Result” value in series [1] (water, 25° C., data value obtained after 3 h is used) turned out to be 100 µg/mL (≈ 200 µM).
For the compound `O=C(CC[C@H](NS(=O)(=O)c1ccc(-c2ccccc2)cc1)C(=O)O)Nc1cccc2ccccc12` [Example 1, 2-(biphenyl-4-sulfonylamino)4-(naphthalen-1-ylcarb-amoyl)butyric acid], the IC50 in series [2] was 0.1 µM; in series [3], 0.01 µM.
In turn, `O=C(CC[C@H](NS(=O)(=O)c1ccc(-c2ccccc2)cc1)C(=O)O)Nc1ccc2ccccc2c1` [Example 2, 2-(biphenyl-4-sulfonylamino)-4-(naphthalen-2-yl-carbamoyl)butyric acid] had an IC50 in series [2] of 0.2 µM.
Compound `O=C(CC[C@H](NS(=O)(=O)c1ccc(-c2ccccc2)cc1)C(=O)O)NCCNc1ccccc1` [Example 3, 2-(biphenyl-4-sulfonylamino)-4-(2-phenylamino-ethylcarbamoyl)butyric acid] gave an IC50 in series [2] of 0.2 µM. This counts as sub-micromolar.
Same read-out and setting: the figure for `O=C(CC[C@H](NS(=O)(=O)c1ccc(-c2ccc(Cl)cc2)cc1)C(=O)O)NCCCN1CCOCC1` [Example 4, 2-(4′-chloro-biphenyl-4-sulfonylamino)-4-(3-morpholin-4-ylpropylcarbamoyl)butyric acid] is 0.1 µM.
Consider `O=C(CC[C@H](NS(=O)(=O)c1ccc(-c2ccccc2)cc1)C(=O)O)NCCCN1CCOCC1` [Example 5, 4-(3-(4-(Biphenyl-4-sulfonylamino)-4-carboxybutyrylamino)-propyl)morpholin-4-ium trifluoroacetate], for which the half-inhibitory concentration (IC50) in series [2] was 0.1 µM; in series [3], 0.006 µM.
Take `O=C(O)[C@H](CCC(=O)N1CCc2ccccc21)NS(=O)(=O)c1ccc(-c2ccccc2)cc1` [Example 6, 2-(Biphenyl-4-sulfonylamino)-5-(2,3-dihydroindol-1-yl)-5-oxopentanecarboxylic acid]: in series [2], the concentration for half-maximal inhibition (IC50) is 0.5 µM.
Take `O=C(O)[C@H](CCC(=O)N1CCc2ccccc21)NS(=O)(=O)c1ccc(-c2ccc(N3CCCC3)cc2)cc1` [Example 7, 5-(2,3-dihydroindol-1-yl)-5-oxo-2-(4′-pyrrolidin-1-yl-biphenyl-4-sulfonyl-amino)pentanoic acid]: the figures for the IC50 in series [2] and in series [3] were 0.04 µM and 0.004 µM, respectively.
For the compound `O=C(O)[C@H](CCC(=O)N1CCc2ccccc21)NS(=O)(=O)c1ccc(-c2ccc(Cl)cc2)cc1` [Example 8, 2-(4′-Chlorobiphenyl-4-sulfonylamino)-5-(2,3-dihydroindol-1-yl)-5-oxopentanoic acid], the values for the IC50 in series [2] and in series [3] were 0.1 µM and 0.01 µM, respectively.
In the case of `O=C(O)[C@H](CCC(=O)N1CCc2ccccc21)NS(=O)(=O)c1ccc(-c2ccc(Br)cc2)cc1` [Example 9, 2-(4′-bromobiphenyl-4-sulfonyl-amino)-5-(2,3-dihydroindol-1-yl)-5-oxopentanoic acid], the midpoint of inhibition in series [2], the IC50, lay at 0.1 µM.
For `O=C(O)[C@H](CCC(=O)N1CCc2cc(F)ccc21)NS(=O)(=O)c1ccc(-c2ccc(Cl)cc2)cc1` [Example 10, 2-(4′-chloro-biphenyl-4-sulfonylamino)-5-(5-fluoro-2,3-dihydroindol-1-yl)-5-oxopentanoic acid], 0.1 µM corresponded to half-maximal inhibition in series [2] (IC50). That is a sub-micromolar value.
Same read-out and setting: the value for `O=C(O)[C@H](CCC(=O)N1CCc2cc(F)ccc21)NS(=O)(=O)c1ccc(-c2ccc(Br)cc2)cc1` [Example 11, 2-(4′-bromobiphenyl-4-sulfonylamino)-5-(5-fluoro-2,3-dihydroindol-1-yl)-5-ox-opentanoic acid] was 0.1 µM.
`O=C(O)[C@H](CCC(=O)N1CCc2cc(F)ccc21)NS(=O)(=O)c1ccc(-c2ccc(N3CCCC3)cc2)cc1` [Example 12, 5-(5-Fluoro-2,3-dihydroindol-1-yl)-5-oxo-2-(4′-pyrrolidin-1-ylbiphenyl-4-sulfonylamino)pentanoic acid]: the concentration for half-maximal inhibition (IC50) worked out at 0.03 µM in series [2] and 0.002 µM in series [3].
On to `O=C(O)[C@H](CCC(=O)N1CCc2cc(F)ccc21)NS(=O)(=O)c1ccc(-c2ccc(N3CCOCC3)cc2)cc1` [Example 13, 5-(5-fluoro-2,3-dihydroindol-1-yl)-2-(4′-morpholin-4-yl-biphenyl-4-sulfonylamino)-5-oxopentanoic acid], for which the IC50 is 0.1 µM in series [2] and 0.01 µM in series [3].
For the compound `O=C(O)[C@@H](CCC(=O)N1CCc2ccccc21)NS(=O)(=O)c1ccc(-c2ccc(Cl)cc2)cc1` [Example 14], the IC50 in series [2] amounted to 0.05 µM; in series [3] it was 0.01 µM.
As to `NC(CO)(CO)CO.O=C(O)C(CCC(=O)N1CCc2ccccc21)NS(=O)(=O)c1ccc(-c2ccc(Cl)cc2)cc1` (stereo not shown) [Example 15, Tromethamine salt of 2-(4′-chlorobiphenyl-4-sulfonylamino)-5-(2,3-dihydroindol-1-yl)-5-oxopentanoic acid], in series [1], the “Solubility in water at 25° C. After 3 h” value turned out to be 58000 µg/mL; the “Solubility in water at 25° C. Result” value amounted to 58000 µg/mL; the “Solubility in water at 25° C. after 2 h” value was 58000 µg/mL; the “Water solubility of tromethamine salt higher than that of the free acid, factor” value was ~600.
